Measurements taken from publication PMC5078090, “In vivo screening and discovery of novel candidate thalidomide analogs in the zebrafish embryo and chicken embryo model systems” (Oncotarget, 2016).
“Also recorded” adds a separate entry of the source.

What was measured:
chicken embryos = assay: In ovo chicken embryo teratogenicity assay; format: in vivo, white leghorn chicken; details: for Lowest effective concentration, Chicken assay: HH stage 17-18 embryos, where no activity was seen the concentration shown is the lowest screened; for Defects in chicken embryo development (text and figure legend): applied at HH stage 17-18, result in words
Experimental: Compounds of interest were screened in chicken and/or zebrafish embryos (Figure 4), to determine if these compounds are teratogenic. The chicken embryo is well established as a model to determine the action of compounds upon development.
Fertilized white leghorn chicken embryos were incubated at 38°C and staged according to the Hamburger and Hamilton (HH) stages of development. Embryos were tested at HH stage 17-18 (day 2.5). Following membrane removal test compounds or vehicle control solutions were applied over the embryo. The eggs were sealed and the development of the embryos was monitored up to HH stage 30 (E9). A minimum of 3 embryos were used per concentration, per drug.

TNF-α [1] = system: TNF-α; parameters: method as in PMID 22642825, PMID 22277195; details: rats challenged with systemic LPS; cited from earlier work
[2] = system: fli1:EGFP zebrafish embryos; assay: fli1:EGFP zebrafish embryo angiogenesis assay (intersegmental vessel outgrowth and number); format: in vivo; details: for Anti-angiogenic activity (loss of ISVs or inhibition of ISV outgrowth): fli1:EGFP embryos, 24 h incubation, result in words
Experimental: To determine if our novel thalidomide analogs (Figure 1) had any effect on in vivo angiogenesis, we used fli1:EGFP embryos which express green fluorescent protein (GFP) on endothelial cells throughout development. Embryos were allowed to develop for 24 hours, then exposed to either vehicle or a compound of interest at the concentration range of 1 to 200 μg/mL. During this time the vasculature is rapidly expanding and developing new, naive intersegmental vessels (ISVs). The embryos were imaged after 24 hours of incubation with the drug (Figure 2A). […] We also observed that the potency of each compound varied.
Figure 2 The effect of novel thalidomide analogs on vessel length fli1:EGFP zebrafish were incubated with vehicle or compounds for 24 hours, at which point vessel outgrowth and number were measured. A. Images of zebrafish exposed to the vehicle or test compounds. […] Treatment with C4 (1.5 μg/mL), C18 (50 μg/mL), C81 (50 μg/mL), C82 (5 μg/mL), C83 (20 μg/mL) and C84 (50 μg/mL) show reduction in vessel out growth (white arrow) and in some cases loss of vessel (white asterisks). B. Stalk length & C. stalk number are reduced. Compounds are shown at the lowest concentration producing an effect. The data represent the mean + the standard error of the mean.
Zebrafish embryos were treated with analogs as previously described. Briefly, fli1:EGFP embryos were collected and embryos were allowed to develop for 24 hours. Embryos were dechorionated manually and exposed to test compounds or vehicle control (0.1% DMSO) for a further 24 hours. Embryos were anesthetized with 0.05% MS222 (Tricaine) (Sigma Aldrich) and live visualization of blood vessels was carried out.
(§1) A broad series of novel thalidomide-based compounds were chemically synthesized (WL, NHG and WDF, NIH), dissolved in DMSO, stored in stock concentrations between 10-100 mg/mL, and used at a final working DMSO concentration of 0.1%. The chemical structures of lead compounds of interest were confirmed by chemical characterization (purity >99.5%). Compounds were screened across a range of concentrations from 1-200 μg/mL to determine the lowest effective concentration.

TNF-α [3] = system: TNF-α; parameters: method as in PMID 22642825, PMID 22277195; details: cited from earlier work
[4] = system: Tg(MPO::EGFP)^114 zebrafish; assay: Tg(MPO::EGFP)^114 zebrafish tail fin clip assay of neutrophil migration to the wound site; format: in vivo; details: for minimal effective concentration: Danio rerio, Neutrophil, fin clipped at 72 hpf, imaged at 24 h, screened 1-200 μg/mL, where no activity was seen the concentration shown is the lowest screened
From the text: To assess the immunomodulatory effects of the thalidomide analogs across the concentration range used in the previous assay, the transgenic zebrafish line Tg(MPO::EGFP)^114 was used. These embryos express GFP tagged myeloperoxidase, marking neutrophils during the inflammatory response, for example following injury. […] This allowed us to subsequently assess the anti-inflammatory activity of each compound by immersing embryos in the test drug or vehicle. The embryos were examined for migration of neutrophils to the wound site. In comparison to control embryos (Figure 3A) compounds with anti-inflammatory properties had reduction of at least 50% of neutrophils recruited to the wound site (Figure 3). […] We also screened the previously identified six anti-angiogenic compounds of interest in the Tg(MPO::EGFP)^114 line.
Figure 3 The effect of thalidomide analogs on the inflammatory response to wound healing A. Zebrafish (72 hpf) embryos transgenic for a fluorescently tagged neutrophil marker Tg(MPO::EGFP)^114 were fin clipped to induce an inflammatory response and exposed to vehicle or a test compound. Broken line indicates the tail fin with cut and area of the wound site. […] The data represent the mean + the standard error of the mean.
Tg(MPO::EGFP)^114 embryos were tail fin clipped as previously detailed and incubated with test compounds or vehicle control at 72 hpf. Fish were imaged at 24 hours and the number of migratory neutrophils present at the wound site were counted. Compounds inducing an at least 50% reduction of neutrophils to the wound site were considered to have anti-inflammatory properties in this system. All larvae were assessed for viability and morphological integrity. A minimum of 10 embryos were used per concentration per drug. Error bars represent standard error of the mean.
as §1

WT Zebrafish = assay: WT zebrafish embryo developmental defect (teratogenicity) screen; format: in vivo; details: for Lowest effective concentration, WT Zebrafish assay: screened 1-200 μg/mL, where no activity was seen the concentration shown is the lowest screened

| SMILES | Lowest effective concentration, Chicken assay (chicken embryos) [µg/mL] | Defects in chicken embryo development (text and figure legend) (chicken embryos) | Teratogenicity in these assays (chicken embryos; chicken and zebrafish embryo assays together, result in words) | Effect on LPS-induced elevations in TNF-α, plasma and brain of rats (TNF-α [1]) | minimal effective concentration ([2]; Danio rerio, 24 h, 24 hpf embryos exposed 24 h, screened 1-200 μg/mL, where no activity was seen the concentration shown is the lowest screened) [µg/mL] | Anti-angiogenic activity (loss of ISVs or inhibition of ISV outgrowth) [2] | Effect on LPS-induced elevations in TNF-α, cultured RAW 264.7 cells (TNF-α [3]) | minimal effective concentration [4] [µg/mL] | Effect on neutrophil migration to the wound site (anti-inflammatory activity) ([4]; fin clipped 72 hpf embryos, result in words) | Eye development / eye diameter in zebrafish embryos (WT Zebrafish; Figure 4, result in words) | Pectoral fin development / fin length in zebrafish embryos (WT Zebrafish; Figure 4, result in words) | Lowest effective concentration, WT Zebrafish assay (WT Zebrafish) [µg/mL] | Damage observed (chicken embryos; HH stage 17-18 chicken embryos, 100 μg/mL) |
| --- | --- | --- | --- | --- | --- | --- | --- | --- | --- | --- | --- | --- | --- |
| O=C1NC(=S)CCC1N1C(=O)c2ccccc2C1=S (stereo not shown) [Compound C2, 2,3-dihydro-2-(2-oxo-6-thioxo-3-piperidinyl)-3-thioxo-1H-isoindol-1-one] | 100 | no effect | non-teratogenic | potently lower lipopolysaccharide (LPS)-induced elevations in TNF-α | 10 | without anti-angiogenic activities | potently lower lipopolysaccharide (LPS)-induced elevations in TNF-α | 10 | reduced neutrophil migration; also recorded: significant anti-inflammatory action | normal eye development | normal | 10 | – |
| O=C1c2cccc([N+](=O)[O-])c2CN1C12CC3CC(CC(C3)C1)C2 [Compound C84] | 100 | hemorrhaging | – | – | – | anti-angiogenic activity | – | 10 | – | reductions in eye diameter | – | 10 | Hemorrhaging |
